Measured values taken from ChEMBL document CHEMBL2016561 (J Med Chem, 2012).
Blank lines part the entries; values can stand above or below the compound they belong to. *1 amine or outer side, *2 acyl side, *3 side chain or, on linkers, in order; H or OH if unused. Where a SMILES comes first, the peptide text is derived from it. [ ]: non-standard residue; d: D form. The star is where a group is joined. X1 = O=C1[C@@H](CCC(=O)[*:2])CCC[C@H]1N[*:1]; Met(O2) = CS(=O)(=O)CC[C@H](N)C(=O)O; Cbz = O=C(OCc1ccccc1)*

Experiments:
Prothrombin = Prothrombin (Homo sapiens, UniProt P00734); test: Inhibition of thrombin by dixon plot method
[1] = biological target: Vitamin K-dependent protein C (Homo sapiens, UniProt P04070); test: Inhibition of activated protein C by dixon plot method
Vitamin K-dependent protein C, sequence (P04070 43-197 limits assumed): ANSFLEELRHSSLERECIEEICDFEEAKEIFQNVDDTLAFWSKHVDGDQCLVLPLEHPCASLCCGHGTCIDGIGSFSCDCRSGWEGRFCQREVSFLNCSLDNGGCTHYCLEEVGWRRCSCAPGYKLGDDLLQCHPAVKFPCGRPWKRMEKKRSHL
Vitamin K-dependent protein C, sequence (P04070 212-461 limits assumed): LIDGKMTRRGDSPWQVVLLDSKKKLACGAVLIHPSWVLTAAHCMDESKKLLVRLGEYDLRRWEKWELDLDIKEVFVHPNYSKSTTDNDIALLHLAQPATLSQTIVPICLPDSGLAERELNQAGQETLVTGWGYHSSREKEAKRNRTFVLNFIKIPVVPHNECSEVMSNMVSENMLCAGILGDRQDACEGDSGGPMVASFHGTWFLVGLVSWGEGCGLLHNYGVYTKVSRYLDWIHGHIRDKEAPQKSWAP

Plasma kallikrein = Plasma kallikrein (Homo sapiens, UniProt P03952); test: Inhibition of plasma kallikrein by dixon plot method
Plasma kallikrein, sequence (P03952 20-390 limits assumed): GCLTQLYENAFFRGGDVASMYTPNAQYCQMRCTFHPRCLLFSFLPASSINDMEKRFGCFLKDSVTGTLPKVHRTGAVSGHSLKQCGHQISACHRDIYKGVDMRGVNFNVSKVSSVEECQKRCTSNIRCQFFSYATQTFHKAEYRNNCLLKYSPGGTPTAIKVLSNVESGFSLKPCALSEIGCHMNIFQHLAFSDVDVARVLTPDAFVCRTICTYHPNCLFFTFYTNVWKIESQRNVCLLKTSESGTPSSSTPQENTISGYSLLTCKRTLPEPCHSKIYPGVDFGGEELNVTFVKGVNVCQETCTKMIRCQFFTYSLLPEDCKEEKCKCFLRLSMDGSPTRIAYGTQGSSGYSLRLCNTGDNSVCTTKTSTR
Plasma kallikrein, sequence (P03952 391-638 limits assumed): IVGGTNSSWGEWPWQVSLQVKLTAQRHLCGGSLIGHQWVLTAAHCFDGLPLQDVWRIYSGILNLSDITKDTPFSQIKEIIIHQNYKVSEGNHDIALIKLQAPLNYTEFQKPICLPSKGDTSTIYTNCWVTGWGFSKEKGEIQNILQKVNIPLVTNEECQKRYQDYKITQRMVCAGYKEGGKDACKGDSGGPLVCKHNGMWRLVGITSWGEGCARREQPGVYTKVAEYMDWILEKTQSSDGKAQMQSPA

Coagulation factor X = Coagulation factor X (Homo sapiens, UniProt P00742); test: Inhibition of factor 10a by dixon plot method
Coagulation factor X, sequence (P00742 41-179 limits assumed): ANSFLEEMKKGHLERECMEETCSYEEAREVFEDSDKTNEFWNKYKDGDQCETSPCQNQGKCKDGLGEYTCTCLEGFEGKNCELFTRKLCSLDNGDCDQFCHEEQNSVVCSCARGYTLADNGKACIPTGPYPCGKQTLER
Coagulation factor X, sequence (P00742 235-488 limits assumed): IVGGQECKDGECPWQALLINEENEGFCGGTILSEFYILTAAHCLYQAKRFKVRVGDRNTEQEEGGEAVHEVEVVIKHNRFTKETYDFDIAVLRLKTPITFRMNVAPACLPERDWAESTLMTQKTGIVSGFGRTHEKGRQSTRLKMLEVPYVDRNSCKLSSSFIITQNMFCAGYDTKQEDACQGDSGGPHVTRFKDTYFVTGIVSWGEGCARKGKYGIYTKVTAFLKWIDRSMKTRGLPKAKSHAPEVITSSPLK

Plasminogen = Plasminogen (Homo sapiens, UniProt P00747); test: Inhibition of plasmin by dixon plot method
Plasminogen, sequence (P00747 97-580 limits assumed): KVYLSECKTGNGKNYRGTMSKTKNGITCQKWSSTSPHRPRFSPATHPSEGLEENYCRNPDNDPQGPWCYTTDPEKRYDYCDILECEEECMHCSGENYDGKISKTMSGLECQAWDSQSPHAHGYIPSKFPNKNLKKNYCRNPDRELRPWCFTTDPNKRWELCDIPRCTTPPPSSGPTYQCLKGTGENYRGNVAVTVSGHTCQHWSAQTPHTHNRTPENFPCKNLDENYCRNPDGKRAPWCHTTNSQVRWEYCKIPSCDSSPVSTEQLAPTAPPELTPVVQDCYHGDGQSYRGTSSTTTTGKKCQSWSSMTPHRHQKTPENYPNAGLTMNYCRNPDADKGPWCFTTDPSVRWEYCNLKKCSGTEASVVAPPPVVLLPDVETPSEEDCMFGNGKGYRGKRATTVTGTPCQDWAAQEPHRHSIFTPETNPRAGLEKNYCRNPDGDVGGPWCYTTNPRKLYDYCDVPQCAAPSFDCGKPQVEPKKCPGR
Plasminogen, sequence (P00747 581-810 limits assumed): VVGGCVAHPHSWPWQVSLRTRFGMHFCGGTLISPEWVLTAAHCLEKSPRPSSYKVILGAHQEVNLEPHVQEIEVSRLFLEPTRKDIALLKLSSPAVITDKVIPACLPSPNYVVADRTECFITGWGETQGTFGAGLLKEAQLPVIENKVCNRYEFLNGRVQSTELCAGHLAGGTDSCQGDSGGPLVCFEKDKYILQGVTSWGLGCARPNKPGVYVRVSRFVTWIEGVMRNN

Structure (SMILES): N=C(N)NCc1cccc(C[C@H](NC(=O)[C@@H](CCCc2ccccc2)NS(=O)(=O)Cc2cccc(C(=O)O)c2)C(=O)NCc2ccc(C(=N)N)cc2)c1
Ki (Plasma kallikrein): 0.075 nM | Ki (Prothrombin): 667 nM | Ki (Coagulation factor X): 42 nM | Ki [1]: 0.61 nM | Ki (Plasminogen): 0.81 nM

Structure (SMILES): N=C(N)c1ccc(CNC(=O)[C@@H]2Cc3cccc(c3)CNC(=O)Cc3ccc(cc3)CC(=O)NCc3cccc(c3)C[C@@H](NS(=O)(=O)Cc3ccccc3)C(=O)N2)cc1
Ki (Prothrombin): 45.4 nM | Ki [1]: 564 nM

Structure (SMILES): N=C(N)c1ccc(CNC(=O)[C@@H]2Cc3cn(nn3)Cc3cccc([n+]3[O-])Cn3cc(nn3)C[C@@H](NS(=O)(=O)Cc3ccccc3)C(=O)N2)cc1
Ki (Plasma kallikrein): 67 nM | Ki (Prothrombin): 1180 nM | Ki (Coagulation factor X): 3120 nM | Ki [1]: > 6000 nM | Ki (Plasminogen): 8.9 nM

Structure (SMILES): CCCCCCCCNC(=O)[C@@H](Cc1ccc(OCc2ccncc2)cc1)NC(=O)[C@H]1CC[C@H](CN)CC1
Ki (Plasminogen): 530 nM

Structure (SMILES): CC(=O)N[C@@H](CCCNC(=N)N)C(=O)N[C@@H](CCS(C)(=O)=O)C(=O)N[C@@H](Cc1ccc(O)cc1)C(=O)N[C@H](C=O)CCCNC(=N)N (Ac-R[Met(O2)]YR-aldehyde)
Ki (Plasminogen): 3.08 nM

Structure (SMILES): O=C(CC[C@H]1CCC[C@@H](NC(=O)[C@H](Cc2c[nH]c3ccccc23)NC(=O)[C@H](Cc2c[nH]c3ccccc23)NC(=O)OCc2ccccc2)C1=O)N[C@@H](Cc1c[nH]c2ccccc12)C(=O)N[C@@H](Cc1ccc(O)cc1)C(=O)O (Cbz-WW[X1]WY-OH)
Ki (Plasminogen): 2700 nM

Continued, values first:

Ki (Prothrombin): 6520 nM | Ki [1]: 12000 nM
Structure (SMILES): N=C(N)c1ccc(CNC(=O)[C@@H]2Cc3ccc(cc3)CNC(=O)Cc3ccc(cc3)CC(=O)NCc3ccc(cc3)C[C@@H](NS(=O)(=O)Cc3ccccc3)C(=O)N2)cc1

Ki (Prothrombin): 2020 nM | Ki [1]: 5.1 nM
Structure (SMILES): N=C(N)c1ccc(CNC(=O)[C@@H]2CCC(=O)NCc3cccc(c3)CNC(=O)CC[C@@H](NS(=O)(=O)Cc3ccccc3)C(=O)N2)cc1

Ki (Prothrombin): 3520 nM | Ki [1]: 3510 nM
Structure (SMILES): N=C(N)c1ccc(CNC(=O)[C@@H]2Cc3ccc(cc3)CNC(=O)CN3CCN(CC3)CC(=O)NCc3ccc(cc3)C[C@@H](NS(=O)(=O)Cc3ccccc3)C(=O)N2)cc1

Ki (Plasma kallikrein): 25.3 nM | Ki (Prothrombin): 7.2 nM | Ki (Coagulation factor X): 21 nM | Ki [1]: 48 nM
Structure (SMILES): N=C(N)c1ccc(CNC(=O)[C@@H]2Cc3cccc(c3)CNC(=O)CN3CCN(CC3)CC(=O)NCc3cccc(c3)C[C@@H](NS(=O)(=O)Cc3ccccc3)C(=O)N2)cc1

Ki (Prothrombin): 26.8 nM | Ki [1]: 223 nM
Structure (SMILES): N=C(N)c1ccc(CNC(=O)[C@@H]2Cc3cccc(c3)CNC(=O)Cc3cccc(c3)CC(=O)NCc3cccc(c3)C[C@@H](NS(=O)(=O)Cc3ccccc3)C(=O)N2)cc1

Ki (Plasma kallikrein): 19 nM | Ki (Prothrombin): 510 nM | Ki (Coagulation factor X): 784 nM | Ki [1]: 4590 nM | Ki (Plasminogen): 1.1 nM
Structure (SMILES): N=C(N)c1ccc(CNC(=O)[C@@H]2Cc3ccc(cc3)OCCCCOc3ccc(cc3)C[C@@H](NS(=O)(=O)Cc3ccccc3)C(=O)N2)cc1

Ki (Prothrombin): 9490 nM | Ki [1]: 3000 nM
Structure (SMILES): N=C(N)c1ccc(CNC(=O)[C@@H]2Cc3cn(nn3)Cc3cccc(c3)Cn3cc(nn3)C[C@@H](NS(=O)(=O)Cc3ccccc3)C(=O)N2)cc1

Ki (Prothrombin): 6170 nM | Ki [1]: 8390 nM
Structure (SMILES): N=C(N)c1ccc(CNC(=O)[C@@H]2Cc3cn(nn3)Cc3cccc(n3)Cn3cc(nn3)C[C@@H](NS(=O)(=O)Cc3ccccc3)C(=O)N2)cc1

Ki (Prothrombin): 137 nM | Ki [1]: 90 nM
Structure (SMILES): N=C(N)c1ccc(CNC(=O)[C@@H]2Cc3ccc(cc3)OCC=CCOc3ccc(cc3)C[C@@H](NS(=O)(=O)Cc3ccccc3)C(=O)N2)cc1 (mixture of isomers)
